The text below walks through data of PubChem BioAssay (NCI).

Among the test systems are TK-10 renal; UACC-62 melanoma; SF-539 CNS; MALME-3M melanoma; SF-268 CNS; COLO 205 colon; CAKI-1 renal; IGROV1 ovarian; MDA-MB-435; MDA-MB-231 breast.
Holding throughout (assay): growth of human tumour cells (NCI), 48 h

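A five-concentration, 48-hour dose response in 96-well plates underlies each endpoint, interpolated linearly between surrounding concentrations. Here, GI50 denotes the concentration required for 50% inhibition of growth. TGI denotes the concentration required for complete inhibition of growth.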 Where only a bound is given, the exact number is not on record here.

On to `COc1cc(/C=C/c2ccc(Br)cc2)cc(OC)c1OC`, for which the TGI in the experiment with TK-10 renal was over 100 µM; with UACC-62 melanoma, over 72.1 µM; in the experiment on SF-539 CNS, 31.9 µM; with MALME-3M melanoma, 76.2 µM; in the experiment on SF-268 CNS, 31.2 µM; in the experiment with COLO 205 colon, 25.7 µM. The TGI was over 87 µM in the experiment with CAKI-1 renal and over 100 µM with IGROV1 ovarian.

Turning to `COc1ccc(S(=O)(=O)N[C@H](C(=O)O)c2ccccc2)cc1`, the TGI with TK-10 renal, in the experiment with UACC-62 melanoma, in the experiment on SF-539 CNS, with MALME-3M melanoma, with SF-268 CNS and with COLO 205 colon was over 100 µM each time. The TGI in the experiment with CAKI-1 renal and with IGROV1 ovarian was over 100 µM in each case.

As to `CCOC(=O)C(NO)C(Sc1ccccc1)c1ccc(OC)cc1` (stereo unspecified), the TGI in the experiment on TK-10 renal, with UACC-62 melanoma, in the experiment with SF-539 CNS, in the experiment with MALME-3M melanoma, with SF-268 CNS and in the experiment with COLO 205 colon was over 100 µM throughout. In addition, the TGI in the experiment with IGROV1 ovarian was over 100 µM.

Turning to `CCN(CC)CC(=O)NC1c2ccccc2Oc2c(C)cccc21` (stereo unspecified), the TGI in the experiment with TK-10 renal, in the experiment on UACC-62 melanoma, in the experiment on SF-539 CNS, in the experiment on SF-268 CNS, with COLO 205 colon and in the experiment with IGROV1 ovarian was over 100 µM in each case.

Turning to `COc1ccc2c(c1)[n+](=O)c(C(=O)C/C(=N/NC(=O)C[N+](C)(C)C)C(=O)Nc1cccc(C)c1C)c(C)n2O`, the TGI with UACC-62 melanoma, in the experiment on SF-539 CNS, in the experiment with MALME-3M melanoma, in the experiment on SF-268 CNS, in the experiment with COLO 205 colon and in the experiment on CAKI-1 renal was over 100 µM throughout. The TGI in the experiment with IGROV1 ovarian was over 100 µM.

With `COC(=O)C1C(=O)O[C@@H](c2ccc(OC)c(OC)c2OC)C1C(=O)OC` (mixture of isomers), the TGI in the experiment with TK-10 renal, in the experiment with UACC-62 melanoma, in the experiment with SF-539 CNS, in the experiment on MALME-3M melanoma, in the experiment with SF-268 CNS and with COLO 205 colon was over 100 µM each time. Besides, the TGI in the experiment on CAKI-1 renal and in the experiment on IGROV1 ovarian was over 100 µM in each case.

With `O=C(Nc1ccccc1C(F)(F)F)c1ccc(NC2=C(Cl)C(=O)N(Cc3ccccc3)C2=O)cc1`, the GI50 is 17.6 µM with TK-10 renal; 18.1 µM with UACC-62 melanoma; 51.5 µM in the experiment with MDA-MB-435; 23 µM in the experiment on SF-539 CNS; 24.3 µM with SF-268 CNS; 98.1 µM in the experiment on COLO 205 colon. Also, the values for the GI50 with CAKI-1 renal, with MDA-MB-231 breast and in the experiment with IGROV1 ovarian were 1.97 µM, 12.8 µM and 19.3 µM, respectively. The TGI with TK-10 renal is 52.5 µM; in the experiment on UACC-62 melanoma, 59.2 µM; with MDA-MB-435, over 100 µM; in the experiment on SF-539 CNS, 59.5 µM; in the experiment on SF-268 CNS, 94.6 µM; in the experiment on COLO 205 colon it was over 100 µM. Further, the TGI in the experiment with CAKI-1 renal came out at 4.15 µM; with MDA-MB-231 breast it was 38.4 µM; in the experiment on IGROV1 ovarian it was 65.9 µM.

`O=S(=O)(c1ccccc1)N1CN2CN(C1)CN(S(=O)(=O)c1ccccc1)C2`: the TGI in the experiment on TK-10 renal, in the experiment on UACC-62 melanoma, with MDA-MB-435, with SF-539 CNS, in the experiment with COLO 205 colon and in the experiment with CAKI-1 renal was over 100 µM in each case. In addition, the TGI in the experiment on MDA-MB-231 breast and in the experiment with IGROV1 ovarian was over 100 µM throughout.

Turning to `CC(=O)Nc1ccc(/C=C2\N=C(c3ccccc3)OC2=O)cc1`, the TGI with TK-10 renal is over 100 µM; in the experiment with UACC-62 melanoma, over 60.1 µM; in the experiment on MALME-3M melanoma, over 100 µM; in the experiment with SF-268 CNS, over 100 µM; with COLO 205 colon, over 100 µM; in the experiment with IGROV1 ovarian it was over 31.6 µM.

For the molecule `C[C@H](CS)C(=O)N1c2ccccc2C[C@H]1C(=O)O`, the TGI in the experiment on TK-10 renal, in the experiment with UACC-62 melanoma, in the experiment on SF-539 CNS, in the experiment with SF-268 CNS, in the experiment on COLO 205 colon and in the experiment on CAKI-1 renal was over 100 µM throughout. Moreover, the TGI with MDA-MB-231 breast and in the experiment on IGROV1 ovarian was over 100 µM each time.

As to `CC[C@]1(O)CC2CN(CCc3c([nH]c4ccccc34)[C@@](C(=O)OC)(c3cc4c(cc3OC)N(C=O)[C@H]3[C@@](O)(C(=O)OC)[C@H](OC(C)=O)[C@]5(CC)C=CCN6CC[C@]43[C@@H]65)C2)C1` (stereo partly specified), the GI50 in the experiment with TK-10 renal is 0.0192 µM; in the experiment on UACC-62 melanoma, under 0.005 µM; in the experiment with MDA-MB-435, under 0.005 µM; with SF-539 CNS, under 0.005 µM; with SF-268 CNS it was under 0.005 µM; in the experiment with COLO 205 colon, under 0.005 µM. The GI50 in the experiment on CAKI-1 renal is 0.232 µM; in the experiment on MDA-MB-231 breast, under 0.005 µM; with IGROV1 ovarian, 0.0334 µM. Besides, the TGI with TK-10 renal is 9.86 µM; with UACC-62 melanoma, over 50 µM; with MDA-MB-435, under 0.005 µM; with SF-539 CNS, over 17.9 µM; with SF-268 CNS it was over 50 µM; in the experiment with COLO 205 colon it was under 0.005 µM. The TGI is over 50 µM in the experiment on CAKI-1 renal, 2.73 µM with MDA-MB-231 breast and over 50 µM in the experiment with IGROV1 ovarian.

In the case of `COc1cc(-c2ccc(NC(=O)SCCC(=O)O)cc2OC)ccc1NC(=O)SCCC(=O)O`, the TGI in the experiment with TK-10 renal, in the experiment with SF-539 CNS, in the experiment with MALME-3M melanoma, in the experiment with SF-268 CNS, in the experiment with COLO 205 colon and in the experiment on CAKI-1 renal was over 100 µM in each case.

Take `COC1[C@H](NC(=O)OC(C)(C)C)C(=O)N1Cc1ccccc1` (stereo partly specified): the TGI with TK-10 renal, in the experiment on UACC-62 melanoma, in the experiment on SF-539 CNS, in the experiment with MALME-3M melanoma, in the experiment on SF-268 CNS and in the experiment on COLO 205 colon was over 100 µM in each case. This molecule registered a TGI with IGROV1 ovarian of over 100 µM.

With `COC1OC(CBr)C(OC(=O)c2ccccc2)C(OS(=O)(=O)c2ccc(C)cc2)C1Br` (stereo unspecified), the TGI in the experiment on TK-10 renal, in the experiment on SF-539 CNS, in the experiment with MALME-3M melanoma, in the experiment on SF-268 CNS, in the experiment on COLO 205 colon and in the experiment on CAKI-1 renal was over 100 µM in each case.
